# Source: patent US20250353819A1, “ARYL HYDANTOIN COMPOUNDS AND METHODS OF USE” (priority 2022, published 2025)
# Values joined by “and” are separate entries in the source; they are usually repeats but may differ in a detail not shown here. Identical values can stand only once. Like-named read-outs stand apart in the source and are kept apart here.
# Assay: Pharmacokinetics in male Sprague Dawley rats
# Format: in vivo, rat
# Settings: for Cmax: read-out: Plasma Cmax; for half-life: plasma
# Method: IV and oral formulations were prepared using the same method. On the day of dosing the solid compound was dissolved in DMSO prior to addition of a saline solution (0.9% w/v). The samples were then mixed using vortexing producing colourless solutions. The IV formulation was filtered through a 0.22 μm syringe filter prior to dosing and the oral formulation was dosed without filtration.
# Samples of arterial blood were collected up to 168 h post-dose. Urine samples were not collected as animals were housed in bedded cages. Arterial blood was collected directly into borosilicate vials (at 4° C.) containing heparin as anticoagulant. Once collected, blood samples were centrifuged, supernatant plasma was removed and stored frozen (−80° C.) until analysis by LC-MS. A summary of the bioanalytical method and assay validation details is included in Tables 14 and 15.
# Plasma concentration versus time data were analysed using non-compartmental methods (PKSolver Version 2.0). Standard calculations for each pharmacokinetic parameter are listed below.
smiles,measurement,setting,value
"CC1(C)NC(=O)N(c2ccc(F)c(C(C)(F)F)c2)C1=O [Compound IC, 3-(3-(1,1-difluoroethyl)-4-fluorophenyl)-5,5-dimethylimidazolidine-2,4-dione]",Plasma Concentration,"IV 1 mg/kg, 0.17 h, individual rats",1292 ng/mL and 1300 ng/mL and 908 ng/mL
same,Plasma Concentration,"IV 1 mg/kg, 0.17 h, mean",1167 ng/mL
same,Plasma Concentration,"IV 1 mg/kg, 1.17 h, individual rats",728 ng/mL and 549 ng/mL and 529 ng/mL
same,Plasma Concentration,"IV 1 mg/kg, 1.17 h, mean",602 ng/mL
same,Plasma Concentration,"IV 1 mg/kg, 2.17 h, individual rats",701 ng/mL and 669 ng/mL and 469 ng/mL
same,Plasma Concentration,"IV 1 mg/kg, 2.17 h, mean",613 ng/mL
same,Plasma Concentration,"IV 1 mg/kg, 4.17 h, individual rats",640 ng/mL and 662 ng/mL and 420 ng/mL
same,Plasma Concentration,"IV 1 mg/kg, 4.17 h, mean",574 ng/mL
same,Plasma Concentration,"IV 1 mg/kg, 7.17 h, individual rats",569 ng/mL and 641 ng/mL and 493 ng/mL
same,Plasma Concentration,"IV 1 mg/kg, 7.17 h, mean",568 ng/mL
same,Plasma Concentration,"IV 1 mg/kg, 12.17 h, individual rats",545 ng/mL and 473 ng/mL and 480 ng/mL
same,Plasma Concentration,"IV 1 mg/kg, 12.17 h, mean",499 ng/mL
same,Plasma Concentration,"IV 1 mg/kg, 24.17 h, individual rats",340 ng/mL and 403 ng/mL and 268 ng/mL
same,Plasma Concentration,"IV 1 mg/kg, 24.17 h, mean",337 ng/mL
same,Plasma Concentration,"IV 1 mg/kg, 36.17 h, individual rats",215 ng/mL and 266 ng/mL and 216 ng/mL
same,Plasma Concentration,"IV 1 mg/kg, 36.17 h, mean",232 ng/mL
same,Plasma Concentration,"IV 1 mg/kg, 48.17 h, individual rats",125 ng/mL and 170 ng/mL and 97 ng/mL
same,Plasma Concentration,"IV 1 mg/kg, 48.17 h, mean",130 ng/mL
same,Plasma Concentration,"IV 1 mg/kg, 72.17 h, individual rats",46.8 ng/mL and 62.2 ng/mL and 33.5 ng/mL
same,Plasma Concentration,"IV 1 mg/kg, 72.17 h, mean",47.5 ng/mL
same,Plasma Concentration,"IV 1 mg/kg, 96.17 h, individual rats",11.5 ng/mL and 28.1 ng/mL and 13.6 ng/mL
same,Plasma Concentration,"IV 1 mg/kg, 96.17 h, mean",17.7 ng/mL
same,Plasma Concentration,"IV 1 mg/kg, 120.17 h, individual rats",3.1 ng/mL and 7.0 ng/mL and 2.6 ng/mL
same,Plasma Concentration,"IV 1 mg/kg, 120.17 h, mean",4.2 ng/mL
same,Plasma Concentration,"IV 1 mg/kg, 144.17 h, individual rats",3.0 ng/mL
same,Plasma Concentration,"IV 1 mg/kg, 144.17 h, mean",3.0 ng/mL
same,clearance,"male, Sprague Dawley, rat, in vivo, iv, 1 mg/kg, rats, IV 1 mg/kg, individual rats, read-out: Blood CL",0.664 mL/min/kg
same,Vd,"male, Sprague Dawley, rat, in vivo, iv, 1 mg/kg, rats, IV 1 mg/kg, individual rats, read-out: Blood Vss",0.948 L/kg
same,AUC,"male, Sprague Dawley, rat, in vivo, iv, 1 mg/kg, rats, IV 1 mg/kg, individual rats, read-out: Plasma AUCIV",20900 ng·h/mL
same,clearance,"male, Sprague Dawley, rat, in vivo, iv, 1 mg/kg, rats, IV 1 mg/kg, individual rats, read-out: Plasma CL",0.797 mL/min/kg
same,Vd,"male, Sprague Dawley, rat, in vivo, iv, 1 mg/kg, rats, IV 1 mg/kg, individual rats, read-out: Plasma Vss",1.14 L/kg
same,AUC,"male, Sprague Dawley, rat, in vivo, iv, 1 mg/kg, rats, IV 1 mg/kg, mean (n = 3), read-out: Plasma AUCIV",20600 ng·h/mL
same,clearance,"male, Sprague Dawley, rat, in vivo, iv, 1 mg/kg, rats, IV 1 mg/kg, mean (n = 3), read-out: Plasma CL",0.825 mL/min/kg
same,Vd,"male, Sprague Dawley, rat, in vivo, iv, 1 mg/kg, rats, IV 1 mg/kg, mean (n = 3), read-out: Plasma Vss",1.25 L/kg
same,clearance,"male, Sprague Dawley, rat, in vivo, iv, 1 mg/kg, rats, IV 1 mg/kg, mean, read-out: Blood CL",0.687 mL/min/kg
same,Vd,"male, Sprague Dawley, rat, in vivo, iv, 1 mg/kg, rats, IV 1 mg/kg, mean, read-out: Blood Vss",1.04 L/kg
same,AUC,"male, Sprague Dawley, rat, in vivo, po, 1 mg/kg, rats, PO 1 mg/kg, individual rats, read-out: Plasma AUCoral",23300 ng·h/mL
same,Cmax,"male, Sprague Dawley, rat, in vivo, po, 1 mg/kg, rats, PO 1 mg/kg, individual rats",614 ng/mL
same,AUC,"male, Sprague Dawley, rat, in vivo, po, 1 mg/kg, rats, PO 1 mg/kg, mean (n = 3), read-out: Plasma AUCoral",20400 ng·h/mL
same,Cmax,"male, Sprague Dawley, rat, in vivo, po, 1 mg/kg, rats, PO 1 mg/kg, mean (n = 3)",572 ng/mL
same,Tmax,"male, Sprague Dawley, rat, in vivo, po, 1 mg/kg, rats, PO 1 mg/kg, mean (n = 3), read-out: Tmax",6.7 h
same,half-life,"male, Sprague Dawley, rat, iv, 1 mg/kg, rats, IV 1 mg/kg, individual rats, read-out: Apparent t1/2 (converted)",13 h
same,half-life,"male, Sprague Dawley, rat, iv, 1 mg/kg, rats, IV 1 mg/kg, mean (n = 3), read-out: Apparent t1/2 (converted)",15 h
same,half-life,"male, Sprague Dawley, rat, other: IV and oral, 1 mg/kg, rats, following IV and oral administration 1 mg/kg, read-out: apparent half-life",13 to 19 h
same,half-life,"male, Sprague Dawley, rat, po, 1 mg/kg, rats, PO 1 mg/kg, individual rats, read-out: Apparent t1/2 (converted)",16 h
same,half-life,"male, Sprague Dawley, rat, po, 1 mg/kg, rats, PO 1 mg/kg, mean (n = 3), read-out: Apparent t1/2 (converted)",16 h
same,Plasma Concentration,"oral 1 mg/kg, 1.00 h, individual rats",614 ng/mL and 430 ng/mL and 184 ng/mL
same,Plasma Concentration,"oral 1 mg/kg, 1.00 h, mean",409 ng/mL
same,Plasma Concentration,"oral 1 mg/kg, 2.00 h, individual rats",612 ng/mL and 506 ng/mL and 427 ng/mL
same,Plasma Concentration,"oral 1 mg/kg, 2.00 h, mean",515 ng/mL
same,Plasma Concentration,"oral 1 mg/kg, 4.00 h, individual rats",545 ng/mL and 477 ng/mL and 474 ng/mL
